Laboratory results: patent publication US4931391A, “Method for preservation of nitrile hydration activity” (Mitsubishi Rayon Kabushiki Kaisha, priority 1986, dated 1990)
Where two headings read alike, the source gives them in different places. Values belong to the molecule of their own block, whether it stands above or below them.

Columns and labels:
[1] = target: T1, (Rhodococcus erythropolis, UniProt P13448+P13449); test: Preservation of nitrile hydration activity of cell extract prepared as in Comparison Example 1, stabilizer added to extract; format: biochemical, Corynebacterium strain N-774(FERM P-4446)
T1 sequence (P13448 2-207 limits assumed): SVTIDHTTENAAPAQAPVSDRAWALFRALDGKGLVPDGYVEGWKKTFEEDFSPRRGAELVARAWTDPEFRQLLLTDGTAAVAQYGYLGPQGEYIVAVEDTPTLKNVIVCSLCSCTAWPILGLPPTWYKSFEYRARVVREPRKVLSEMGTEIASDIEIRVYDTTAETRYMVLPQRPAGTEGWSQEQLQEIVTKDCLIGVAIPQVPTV
T1 sequence (P13449 1-212): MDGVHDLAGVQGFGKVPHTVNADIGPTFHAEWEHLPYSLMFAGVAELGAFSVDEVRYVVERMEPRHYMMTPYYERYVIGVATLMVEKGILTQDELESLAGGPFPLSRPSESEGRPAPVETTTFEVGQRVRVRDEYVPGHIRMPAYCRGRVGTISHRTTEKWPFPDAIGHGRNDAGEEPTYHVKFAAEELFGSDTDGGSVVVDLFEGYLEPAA

immobilized nitrilase = immobilized nitrilase (Rhodococcus erythropolis, UniProt P13448+P13449); test: Preservation of nitrile hydration activity of immobilized enzyme (polyacrylamide gel); format: biochemical, Corynebacterium strain N-774(FERM P-4446); details: 0° C., 20 minutes
Protocol: 40 ml of a cell extract prepared as in Example 1, 4.5 g of acrylamide, 0.5 g of N,N'-methylenebisacrylamide, and 40 ml of M/20 phosphate buffer (containing 10 g/l of ammonium isobutyrate, pH 6.0) were mixed to form a homogeneous suspension. To this suspension were added 5 ml of a 5% aqueous solution of dimethylaminopropionitrile and 10 ml of a 1.0% aqueous solution of potassium persulfate, and the mixture was maintained at 10° C. for 30 minutes to cause polymerization. A mass of cell-containing gel obtained was crushed into small particles, which were thoroughly washed with M/20 phosphate buffer containing 5 g/l of ammonium isobutyrate, pH 7.0, whereby approximately 90 g of an immobilized enzyme was obtained.
The washed, immobilized enzyme thus obtained was placed in the same buffer containing 5 g/l of isobutyric acid and left standing at 20° C. for 3 days.
The nitrile hydration activity levels of the gel samples were measured as follows before and after the respective immobilized enzymes were left standing.
1 g of immobilized gel was mixed with 5 g of acrylonitrile and 97 ml of M/20 phosphate buffer (pH 7.7), and the mixture was subjected to reaction at 0° C. for 20 minutes with stirring. The quantities of acrylamide in the respective reaction solutions were determined by gas chromatography.

[2] = 48 h; 10 mg organic acid in 2.5 ml buffer + 2.5 ml extract; pH 6.5; 20° C. for 2 days; read-out: % Residual Activity (Organic Acid Added)
[3] = 48 h; 10 mg amide in 2.5 ml buffer + 2.5 ml extract; pH 6.5; 20° C. for 2 days; read-out: % Residual Activity (Amide Added)
[4] = 48 h, pH 6.5, read-out: % Residual Activity (Organic Acid Added)
[5] = 48 h, pH 6.5; read-out: % Residual Activity (Amide Added)
[6] = 48 h, pH 6.5; read-out: % Residual Activity (Organic Acid Added)
[7] = 48 h, pH 6.5; read-out: % Residual Activity (Nitrile Added)
[8] = 48 h; 10 mg nitrile in 2.5 ml buffer + 2.5 ml extract (0.8×10^3 U/ml); pH 6.5; 20° C. for 2 days; read-out: % Residual Activity (Nitrile Added)
[9] = pH 6, read-out: % Residual Activity
[10] = stabilizer concentration 0.01 g/l; pH 6.0; extract 0.7×10^3 U/ml; 20° C. for 2 days; read-out: % Residual Activity
[11] = stabilizer concentration 5.0 g/l; pH 6.0; extract 0.7×10^3 U/ml; 20° C. for 2 days; read-out: % Residual Activity
[12] = stabilizer concentration 20 g/l; pH 6.0; […]; 20° C. for 2 days; read-out: % Residual Activity
[13] = stabilizer concentration 50 g/l; pH 6.0; extract 0.7×10^3 U/ml; 20° C. for 2 days; read-out: % Residual Activity
[14] = 48 h, pH 6, read-out: % Residual Activity
[15] = 48 h, pH 7, read-out: % Residual Activity
[16] = stabilizer concentration 1.0 g/l; pH 6.0; […]; 20° C. for 2 days; read-out: % Residual Activity

activity at 2000 µg/mL [1, 2]: 60%
Structure (SMILES): O=C(O)C(O)CO (racemic) [DL-Glyceric acid]

activity at 2000 µg/mL [1, 3]: 57%
Structure (SMILES): CC(N)=O [Acetamide]

Structure (SMILES): CC(=O)O [Acetic acid]
activity at 2000 µg/mL [1, 4]: 55%

Structure (SMILES): CC#N [Acetonitrile]
activity at 2000 µg/mL ([1]; 48 h, pH 6.5, read-out: % Residual Activity (Nitrile Added)): 61%

Structure (SMILES): C=CC(N)=O [Acrylamide]
activity at 2000 µg/mL [1, 5]: 63%

Structure (SMILES): C=CC(=O)O [Acrylic acid]
activity at 2000 µg/mL [1, 6]: 53%

Structure (SMILES): C=CC#N [Acrylonitrile]
activity at 2000 µg/mL [1, 7]: 56%

Structure (SMILES): N#CCCCCC#N [Adiponitrile]
activity at 2000 µg/mL [1, 7]: 68%

activity at 2000 µg/mL [1, 3]: 47%
Structure (SMILES): NC(=O)c1ccccc1 [Benzamide]

Structure (SMILES): O=C(O)c1ccccc1 [Benzoic acid]
activity at 2000 µg/mL [1, 6]: 48%

Structure (SMILES): N#Cc1ccccc1 [Benzonitrile]
activity at 2000 µg/mL [1, 8]: 44%

Structure (SMILES): CCCC(=O)O [Butyric acid]
remaining activity at 100 µg/mL [1, 9]: 87% | remaining activity at 10 µg/mL [1, 10]: 63% | remaining activity at 1000 µg/mL ([1]; stabilizer concentration 1.0 g/l; pH 6.0; extract 0.7×10^3 U/ml; 20° C. for 2 days; read-out: % Residual Activity): 92% | remaining activity at 5000 µg/mL [1, 11]: 90% | remaining activity at 20000 µg/mL [1, 12]: 85% | remaining activity at 50000 µg/mL [1, 13]: 67%

Structure (SMILES): CCCCCC(=O)O [Caproic acid]
activity at 2000 µg/mL [1, 6]: 78%

Structure (SMILES): NC(=O)CCl [Chloroacetamide]
activity at 2000 µg/mL ([1]; 48 h, pH 6.5, read-out: % Residual Activity (Amide Added)): 60%

Structure (SMILES): N#CCCl [Chloroacetonitrile]
activity at 2000 µg/mL [1, 7]: 58%

Structure (SMILES): N#CCC(N)=O [Cyanoacetamide]
activity at 2000 µg/mL [1, 7]: 53%

activity at 2000 µg/mL [1, 8]: 54%
Structure (SMILES): N#CCC(=O)O [Cyanoacetic acid]

Structure (SMILES): O=CO [Formic acid]
activity at 2000 µg/mL [1, 4]: 48%

activity at 2000 µg/mL [1, 3]: 49%
Structure (SMILES): NCC(N)=O [Glycine amide]

Structure (SMILES): N#CCN [Glycine nitrile]
activity at 2000 µg/mL [1, 7]: 58%

activity at 2000 µg/mL [1, 2]: 52%
Structure (SMILES): O=C(O)CO [Glycolic acid]

activity at 2000 µg/mL [1, 2]: 72%
Structure (SMILES): O=CC(=O)O [Glyoxylic acid]

Structure (SMILES): CC(C)C(N)=O [Isobutyramide]
activity at 25 mg [1, 14]: 80% | activity at 25 mg ([1]; 48 h, pH 7; read-out: % Residual Activity): 74% | activity at 2000 µg/mL [1, 3]: 85% | activity at 25 mg ([1]; 48 h; pH 5.0; 25 mg stabilizer in 2.5 ml buffer + 2.5 ml extract (1×10^3 U/ml); 20° C. for 2 days; read-out: % Residual Activity): 4% | activity at 25 mg ([1]; 48 h; pH 8.0; 25 mg stabilizer in 2.5 ml buffer + 2.5 ml extract (1×10^3 U/ml); 20° C. for 2 days; read-out: % Residual Activity): 48%

Structure (SMILES): CC(C)C(=O)O [Isobutyric acid]
activity at 25 mg ([1]; 48 h, pH 5, read-out: % Residual Activity): 2% | activity at 25 mg ([1]; 48 h, pH 5.5, read-out: % Residual Activity): 82% | activity at 25 mg [1, 14]: 83% | activity at 2000 µg/mL [1, 4]: 83% | activity at 25 mg [1, 15]: 77% | activity at 25 mg ([1]; 48 h, pH 8, read-out: % Residual Activity): 42% | Quant. of AA produced (%) after enzyme was left standing (immobilized nitrilase; after standing at 20° C. for 3 days in buffer containing 5 g/l of isobutyric acid, 1 g gel): 0.60% | Quant. of AA produced (%) before enzyme was left standing (immobilized nitrilase; immobilized gel, 1 g with 5 g acrylonitrile, immobilized and washed with stabilizer): 0.71%

Structure (SMILES): CC(C)C#N [Isobutyronitrile]
activity at 25 mg ([1]; 48 h, pH 5; read-out: % Residual Activity): 3% | activity at 25 mg [1, 14]: 82% | activity at 2000 µg/mL [1, 7]: 88% | activity at 25 mg [1, 15]: 77% | activity at 25 mg ([1]; 48 h, pH 8; read-out: % Residual Activity): 45%

activity at 2000 µg/mL [1, 3]: 50%
Structure (SMILES): CC(O)C(N)=O (stereo not shown) [Lactamide]

Structure (SMILES): CC(O)C#N (stereo not shown) [Lactonitrile]
activity at 2000 µg/mL [1, 7]: 49%

activity at 2000 µg/mL [1, 2]: 43%
Structure (SMILES): O=C(O)CC(O)C(=O)O (stereo not shown) [Malic acid]

activity at 2000 µg/mL [1, 3]: 48%
Structure (SMILES): NC(=O)CC(N)=O [Malondiamide]

Structure (SMILES): N#CCC#N [Malononitrile]
activity at 2000 µg/mL ([1]; 48 h; pH 6.5; 20° C. for 2 days; read-out: % Residual Activity (Nitrile Added)): 55%

Structure (SMILES): C=C(C)C(N)=O [Methacrylamide]
activity at 2000 µg/mL [1, 3]: 70%

Structure (SMILES): C=C(C)C(=O)O [Methacrylic acid]
activity at 2000 µg/mL [1, 6]: 59%

Structure (SMILES): C=C(C)C#N [Methacrylonitrile]
activity at 2000 µg/mL [1, 7]: 62%

Structure (SMILES): O=C(O)CCl [Monochloroacetic acid]
activity at 2000 µg/mL [1, 6]: 39%

Structure (SMILES): NC(=O)c1cccnc1 [Nicotinamide]
activity at 2000 µg/mL [1, 5]: 39%

Structure (SMILES): N#Cc1cccnc1 [Nicotinonitrile]
activity at 2000 µg/mL [1, 7]: 43%

activity at 2000 µg/mL [1, 2]: 68%
Structure (SMILES): O=C(O)CC(=O)C(=O)O [Oxalacetic acid]

Structure (SMILES): CCC(N)=O [Propionamide]
activity at 2000 µg/mL [1, 3]: 83%

Structure (SMILES): CCC(=O)O [Propionic acid]
activity at 2000 µg/mL [1, 4]: 78%

Structure (SMILES): CCC#N [Propionitrile]
activity at 2000 µg/mL [1, 7]: 83%

activity at 2000 µg/mL [1, 3]: 63%
Structure (SMILES): NC(=O)CCC(N)=O [Succindiamide]

Structure (SMILES): O=C(O)CCC(=O)O [Succinic acid]
activity at 2000 µg/mL [1, 4]: 59%

Structure (SMILES): N#CCCC#N [Succinonitrile]
activity at 2000 µg/mL [1, 7]: 70%

activity at 2000 µg/mL [1, 2]: 81%
Structure (SMILES): CCCCC(=O)O [Valeric acid]

Structure (SMILES): CCCC(N)=O [n-Butyramide]
activity at 2000 µg/mL [1, 3]: 90% | remaining activity at 20000 µg/mL [1, 9]: 78% | remaining activity at 10 µg/mL [1, 10]: 60% | remaining activity at 100 µg/mL ([1]; stabilizer concentration 0.1 g/l; pH 6.0; […]; 20° C. for 2 days; read-out: % Residual Activity): 85% | remaining activity at 1000 µg/mL [1, 16]: 85% | remaining activity at 5000 µg/mL [1, 11]: 89% | remaining activity at 50000 µg/mL [1, 13]: 63%

Structure (SMILES): CCCC#N [n-Butyronitrile]
activity at 2000 µg/mL [1, 7]: 93% | remaining activity at 100 µg/mL [1, 9]: 82% | remaining activity at 10 µg/mL ([1]; stabilizer concentration 0.01 g/l; pH 6.0; […]; 20° C. for 2 days; read-out: % Residual Activity): 60% | remaining activity at 1000 µg/mL [1, 16]: 88% | remaining activity at 5000 µg/mL ([1]; stabilizer concentration 5.0 g/l; pH 6.0; […]; 20° C. for 2 days; read-out: % Residual Activity): 86% | remaining activity at 20000 µg/mL [1, 12]: 70%

activity at 2000 µg/mL [1, 3]: 75%
Structure (SMILES): CCCCCC(N)=O [n-Capronamide]

Structure (SMILES): CCCCCC#N [n-Capronitrile]
activity at 2000 µg/mL [1, 7]: 71%

activity at 2000 µg/mL [1, 3]: 78%
Structure (SMILES): CCCCC(N)=O [n-Valeramide]

Structure (SMILES): CCCCC#N [n-Valeronitrile]
activity at 2000 µg/mL [1, 7]: 82%

activity at 2000 µg/mL [1, 3]: 52%
Structure (SMILES): NCCC(N)=O [β-Aminopropionamide]

Structure (SMILES): NCCC(=O)O [β-Aminopropionic acid]
activity at 2000 µg/mL [1, 4]: 45%

Structure (SMILES): N#CCCN [β-Aminopropionitrile]
activity at 2000 µg/mL [1, 7]: 55%

activity at 2000 µg/mL [1, 3]: 68%
Structure (SMILES): NC(=O)CCCl [β-Chloropropionamide]

Structure (SMILES): N#CCCCl [β-Chloropropionitrile]
activity at 2000 µg/mL [1, 7]: 63%

activity at 2000 µg/mL [1, 3]: 61%
Structure (SMILES): NC(=O)CCO [β-Hydroxypropionamide]

Structure (SMILES): N#CCCO [β-Hydroxypropionitrile]
activity at 2000 µg/mL [1, 7]: 78%
